The term IC50 denotes the point on the concentration scale where inhibition reaches its midpoint. In general, half-life refers to the time needed for the level to fall by half in the phase considered. As a reminder, the microsomal CLint is the rate of metabolic loss divided by the concentration.

Consider three compounds from publication PMC7177833, “2-Aminopyridine Analogs Inhibit Both Enzymes of the Glyoxylate Shunt in Pseudomonas aeruginosa” (International Journal of Molecular Sciences, 2020).

SMILES strings stand for the structures.

One data set deals with T1, CYP2C9 (Homo sapiens, UniProt P11712).
T1 construct: pooled human liver microsomes; tissue BioIVT; host or cells: pooled human liver microsomes
T1 sequence (P11712 whole entry): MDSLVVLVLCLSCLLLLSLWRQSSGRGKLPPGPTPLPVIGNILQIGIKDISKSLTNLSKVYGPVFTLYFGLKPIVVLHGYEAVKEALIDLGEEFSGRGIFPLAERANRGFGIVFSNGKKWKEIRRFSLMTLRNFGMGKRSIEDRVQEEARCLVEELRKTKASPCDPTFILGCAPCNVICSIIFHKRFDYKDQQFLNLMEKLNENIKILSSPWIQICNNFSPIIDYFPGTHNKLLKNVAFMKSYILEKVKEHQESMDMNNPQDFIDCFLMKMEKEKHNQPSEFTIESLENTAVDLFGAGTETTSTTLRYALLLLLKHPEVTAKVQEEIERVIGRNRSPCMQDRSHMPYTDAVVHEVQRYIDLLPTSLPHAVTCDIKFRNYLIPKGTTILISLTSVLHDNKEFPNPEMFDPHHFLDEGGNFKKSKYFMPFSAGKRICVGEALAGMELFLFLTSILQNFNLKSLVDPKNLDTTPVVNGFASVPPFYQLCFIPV
Kind of data set: CYP450 inhibition in HLM, diclofenac probe. The data set is classed as in vitro ADME. The note with it: read-out: IC50 CYP450 2C9. How it is done:
(§1) The CYP450 inhibition was determined by measuring the reaction products of known CYP450 substrates (probes). Probe solutions were prepared by diluting stock solutions with buffer (100 mM Tris-HCl, pH 7.5, and 0.5 mM EDTA) to the final indicated concentrations (Figure 5), and adding 180 µL of pooled human liver microsomes (20 mg/mL) (BioIVT, West Sussex, UK). These probe solutions were dispensed (195 µL) into clear 96-well plates with low evaporation lids (Corning, Turin, Italy) and the plates were prewarmed to 37 °C in a thermomixer (Hamilton, Agrate Brianza, Italy). Next, 5 µL of the test compound or appropriate positive control (Table S4) were added to the wells and the plates were incubated for a further 5 min. Following this, the reactions were started by adding NADPH regenerating solution (50 µL, see previous Section 4.7) to each well. CYP450 mixtures containing phenacetin, rosiglitazone, mephenytoin, atorvastatin, and nifedipine probes were incubated for 10 min at 37 °C, whereas those with midazolam and diclofenac were incubated for 5 min at 37 °C. Aliquots (100 µL) from each reaction mixture were quenched in 200 µL acetonitrile, and the mixtures were sedimented at 3000 ×g for 10 min at 4 °C. The supernatants were diluted in water containing 5 ng/mL Rolipram as an internal standard for LC-MS/MS analysis. All incubations were carried out in triplicate.
(§2) Probe products were analyzed on an API4000 Qtrap mass spectrometer (Applied Biosystems/MDS SCIEX, Monza, Italy) coupled with an Acquity UPLC system (Waters, Milan, Italy) and a CTC-PAL auto-injector (CTC Analytics AG, Zwingen, Switzerland). […] The column temperature was maintained at 60 °C. The injected sample volume was 10 µL, and analytes were eluted at a flow rate of 800 µL/min in a gradient of eluent A (water with 0.1% formic acid) and eluent B (acetonitrile with 0.1% formic acid). […] The analytes were quantified in multiple reaction-monitoring mode. Data were processed, and the percentage control activity was calculated based on a comparison between the ratio of the sample peak area and the peak area.

The target in the next data set is T2, CYP1A2 (Homo sapiens, UniProt P05177).
T2 sequence (P05177 1-516): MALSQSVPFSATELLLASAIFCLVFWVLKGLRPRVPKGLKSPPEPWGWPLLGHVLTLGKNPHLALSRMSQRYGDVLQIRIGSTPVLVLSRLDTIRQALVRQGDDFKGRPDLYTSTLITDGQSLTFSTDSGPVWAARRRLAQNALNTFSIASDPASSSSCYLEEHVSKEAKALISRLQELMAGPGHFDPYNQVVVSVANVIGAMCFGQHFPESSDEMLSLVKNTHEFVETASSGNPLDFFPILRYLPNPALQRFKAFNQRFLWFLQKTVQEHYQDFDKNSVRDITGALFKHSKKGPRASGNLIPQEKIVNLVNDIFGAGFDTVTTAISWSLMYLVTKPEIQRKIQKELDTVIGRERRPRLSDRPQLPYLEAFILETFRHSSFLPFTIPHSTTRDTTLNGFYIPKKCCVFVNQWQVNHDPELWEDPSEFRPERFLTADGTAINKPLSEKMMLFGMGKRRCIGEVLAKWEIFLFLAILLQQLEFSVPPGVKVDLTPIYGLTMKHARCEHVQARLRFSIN
The experiment in a line: CYP450 inhibition in HLM, phenacetin probe. How it is done:
as §1, §2

Data set [1] can be described thus: Metabolic stability in human liver microsomes. To be noted: HLM; for Clh, int (predicted hepatic clearance): scaled; for Clh (predicted in vivo hepatic clearance): well-stirred model; for half-life at 0.5 µM / microsomal CLint at 0.5 µM: human, pooled human liver microsomes, pH 7.4. The data set is classed as in vitro ADME. How it is done:
The metabolic stability of the test compounds was measured following incubation with liver microsomes from humans (BioIVT, lot no. IHG; West Sussex, UK) and rats (BD Gentest, lot no. 60614; BD Biosciences, Milan, Italy). Verapamil and dextromethorphan were used as positive controls. An automated incubation procedure was performed using the RSP Freedom Evo liquid dispensing and incubation system (TECAN, Milan, Italy). Five microliters of 50 µM test compound or positive control were added to 445 µL of microsomal suspension in 96 deep-well plates. The microsomal preparation comprised 0.56 mg/mL of pooled and homogenized liver microsomes suspended in 50 mM potassium phosphate buffer, pH 7.4. After 5 min at 37 °C, the reactions were initiated by adding 50 µL of prewarmed NADPH regenerating buffer to each sample. The regenerating buffer comprised a 2% NaHCO3 solution containing 1.7 mg NADP, 7.8 mg glucose-6-phosphate, and 6 units of glucose-6-phosphate dehydrogenase per mL. The samples were incubated at 37 °C, and 50 µL aliquots were withdrawn after 0, 3, 10, 15, 30, and 45 min and quenched in 150 µL acetonitrile. […] The analytical column was a Synergi “Max-RP” reverse phase C12 with TMS endcapping (30 mm × 2 mm, 4 µm particle size) (Phenomenex, Inc., Bologna, Italy). The column temperature was maintained at 60 °C. […] Analytes were quantified in multiple reaction-monitoring mode. Peak areas were integrated using Integrator Software from Agilent (Agilent Technologies, Milan, Italy) and were divided by the peak areas of the internal standard. The percentage of parent compound remaining was calculated by normalizing the peak area ratio of the parent compound to that of the internal standard at time 0. The half-lives of compound metabolism were derived from the linear portion of the slope of ln percent parent compound vs time. Intrinsic clearance in liver microsomes was estimated from: (1) Clint=k×(V/M) (2) Clh, int=(Clint (×1st Scaling factor)×2^ndScaling factor) (3) Clh=(Q×Clh, int)/(Q+Clh, int).
Here, k is the rate of depletion of the parent compound ([…]), V is the volume of the reaction mixture in mL, and M is the concentration of microsomal protein (in mg/mL). The amounts of protein in the incubations were scaled relative to the average liver- and body-mass of each species to obtain intrinsic hepatic clearance (Clh, int, in […]) (Table S3). These scaling factors were used along with the average hepatic blood flow (Q, in […]) of each species to obtain in vivo correlations (Clh, in mL/min/kg) using the well-stirred model.

As to `CC(C)(C)OC(=O)/N=C(\NC(=O)OC(C)(C)C)Nc1cc(Cl)ccn1` [SB002], the IC50 at CYP2C9 is greater than 100 µM. For the same compound, the IC50 against CYP1A2 is greater than 100 µM. For the same compound, in data set [1], the T1/2 was determined as 1.342 h; the “Clh, int (predicted hepatic clearance)” value is listed as 23.31 mL/min/kg; the “Clh (predicted in vivo hepatic clearance)” value is given as 10.96 mL/min/kg; the half-life at 0.5 µM was found to be 1.35 h. In addition, the intrinsic metabolic clearance (microsomal CLint) at 0.5 µM in data set [1] came to 17.3 µL/min/mg.

On to `CC(C)(C)OC(=O)/N=C(\NC(=O)OC(C)(C)C)Nc1cc(C#N)ccn1` [SB023], for which the IC50 on CYP2C9 is greater than 100 µM. In addition, the concentration for half-maximal inhibition (IC50) against CYP1A2 is greater than 100 µM. Moreover, in data set [1], the T1/2 was determined as 1.214 h; the “Clh, int (predicted hepatic clearance)” value is reported as 25.75 mL/min/kg; the “Clh (predicted in vivo hepatic clearance)” value is given as 11.48 mL/min/kg; the half-life at 0.5 µM is 1.2 h. Besides, the intrinsic clearance (microsomal CLint) at 0.5 µM in data set [1] amounted to 19.1 µL/min/mg.

Take `Nc1cc(Cl)ccn1` [Compound 2-AP, 2-amino-4-chloropyridine, reference compound]: the IC50 at CYP2C9 was greater than 100 µM. Besides, the half-maximal inhibitory concentration (IC50) at CYP1A2 was greater than 100 µM. Further, in data set [1], the “Clh, int (predicted hepatic clearance)” value is on record as 34.33 mL/min/kg; the “Clh (predicted in vivo hepatic clearance)” value is given as 12.91 mL/min/kg; the half-life at 0.5 µM is 0.911 h; the microsomal CLint at 0.5 µM came to 25.4 µL/min/mg.
